Source: patent publication US20070191364A1, “AMINOPIPERIDINE DERIVATIVES, PREPARATION THEREOF AND THERAPEUTIC USE THEREOF” (SANOFI-AVENTIS, priority 2004, published 2007)
pEC50, pIC50: −log10 of the molar value. Structures can show the parent of a compound that is named as a salt.

Columns and labels:
human MC3 receptor = biological target: T1, human MC3 receptor (Homo sapiens, UniProt P41968); assay: Functional agonist assay: cAMP formation in CHO(dhfr-) cells; type: cell-based; details: 1 hour incubation, read-out: EC50 with respect to the MC3 receptor
T1 construct: expressed in transfected cells; host or cells: CHO(dhfr-)
T1 sequence (P41968 whole entry): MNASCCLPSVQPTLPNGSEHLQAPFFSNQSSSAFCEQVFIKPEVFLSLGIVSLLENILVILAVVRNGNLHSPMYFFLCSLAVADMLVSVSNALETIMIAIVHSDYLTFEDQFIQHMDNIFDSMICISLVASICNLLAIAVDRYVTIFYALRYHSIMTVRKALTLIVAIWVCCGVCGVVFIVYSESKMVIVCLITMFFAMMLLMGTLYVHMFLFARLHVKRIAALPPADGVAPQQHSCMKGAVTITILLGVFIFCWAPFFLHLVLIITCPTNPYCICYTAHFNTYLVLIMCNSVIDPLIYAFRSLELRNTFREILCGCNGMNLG
Procedure: (§1) A functional assay is used to differentiate between the agonist activity and the antagonist activity. For this, the formation of cyclic adenosine monophosphate (cAMP) generated by activation of the MC3 receptor or of the MC4 receptor is assayed.
CHO(dhfr-) cells expressing the human MC3 receptor are seeded into MEM Eagle culture medium (Sigma) containing 10% of dialysed calf serum, 1% L-glutamine, 1% sodium pyruvate, 20 mg/500 ml L-proline, 0.3 mg/ml Geneticin and 0.5% PenStrep, these products being provided by Gibco/BR1, except for the dialysed calf serum (Cambrex) and the L-proline (Sigma).
(§2) The compounds to be tested (diluted in 10% DMSO), in an amount of 10 μl at a concentration of 10 times the final concentration, are added to the plates of cells (final volume=100 μl/well). After incubation for 1 hour (37° C., 5% CO2), the amount of cAMP is assayed using Tropix kits (Appelera) according to the supplier's documentation. The intrinsic activity of the compounds is calculated by comparing the stimulation of cAMP by these compounds to the stimulation induced by 30 nM of NDP[…]MSH (maximum of 100%). The EC50 value for the compounds corresponds to the concentration which produces 50% of the maximum stimulation obtained with this compound.

human MC4 receptor [1] = biological target: T2, human MC4 receptor (Homo sapiens, UniProt P32245); assay: Functional agonist assay: cAMP formation in CHO-K1 cells; type: cell-based; details: 1 hour incubation, read-out: EC50 with respect to the MC4 receptor
T2 construct: host or cells: CHO-K1
T2 sequence (P32245 whole entry): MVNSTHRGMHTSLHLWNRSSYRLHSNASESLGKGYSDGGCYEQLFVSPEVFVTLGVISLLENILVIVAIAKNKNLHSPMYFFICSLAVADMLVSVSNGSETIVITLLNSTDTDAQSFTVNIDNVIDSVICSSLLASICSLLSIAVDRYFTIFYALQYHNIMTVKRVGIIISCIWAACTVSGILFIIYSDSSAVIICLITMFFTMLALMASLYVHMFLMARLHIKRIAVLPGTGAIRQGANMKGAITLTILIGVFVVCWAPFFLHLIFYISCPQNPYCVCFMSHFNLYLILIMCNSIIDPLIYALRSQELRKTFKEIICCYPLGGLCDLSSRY
Procedure: as §1
CHO-K1 cells, expressing the human MC4 receptor at a moderate density (Euroscreen), are seeded into DMEM/Nutrient Mix F12 culture medium (Gibco/BR1) containing 10% of foetal calf serum, 0.5% sodium pyruvate, 1% L-glutamine, 1% non-essential amino acids, 200 mg/l hygromycin B and 0.5% PenStrep, these products being provided by Gibco/BR1, except the calf serum (Biowhittaker) and hygromycin B (Sigma).
as §2

human MC4 receptor [2] = biological target: T2, human MC4 receptor; assay: Affinity assay: displacement of [125I]-[Nle4,D-Phe7]-α-MSH binding to membranes of CHO-K1 cells (SPA); details: radioligand displacement, 100 pM [125I]-NDP-α-MSH, 6 h; read-out: IC50 with respect to the MC4 receptor
Procedure: This affinity assay is carried out by measuring the binding of [^125I]-[Nle^4-D-Phe^7]-[…]-MSH to cell membranes. The displacement of this radioligand is used to identify inhibitors of the specific binding to recombinant melanocortin receptors.
For this assay, membranes prepared from CHO-K1 cells expressing the human MC4 receptor at high density (Euroscreen) or membranes, that were purchased (Perkin Elmer Life Sciences, Receptor Biology), of HEK-293 cells expressing hMC3 receptors were used. CHO-K1 cells transfected with the hMC4 receptor gene (Euroscreen) are seeded into DMEM/Nutrient Mix F12 culture medium containing 10% foetal calf serum (Biowhittaker), 1% sodium pyruvate, 1% L-glutamine, 1% non-essential amino acids, 0.4 mg/ml geneticin (G418) and 0.5% PenStrep, these products being provided by Gibco/BR1, except the calf serum. At 80% confluency, the cells are scraped off and the cell pellets are frozen at −80° C. […]
[^125I]-[Nle^4, D-Phe^7]-[…]-MSH is diluted in binding buffer+0.2% BSA. […] The nonspecific binding is defined by NDP-[…]MSH at 10^−7 M. The total binding is measured by the number of counts per minute in the presence of the radioligand alone. […]

CCN(CC)C(=O)N(C1CCCCC1)C1CCN(C(=O)[C@@H](Cc2ccc(Cl)cc2)NC2CCNCC2)CC1 (as salt: HCl) [Compound 1, N-[1-(4-chloro-N-piperidin-4-yl-D-phenylalanyl)piperidin-4-yl]-N-cyclohexyl-N′,N′-diethylurea]
melting point: > 220 °C

CCN(CC)C(=O)N(C1CCCCC1)C1CCN(C(=O)[C@@H](Cc2ccc(Cl)cc2)NC2CCNCC2)CC1 [Compound 1, N-[1-(4-chloro-N-piperidin-4-yl-D-phenylalanyl)piperidin-4-yl]-N-cyclohexyl-N′,N′-diethylurea]
pEC50 (human MC3 receptor): 6.23
pEC50 (human MC4 receptor [1]): 7.10

CCN(CC)C(=O)N(C1CCCCC1)C1CCN(C(=O)[C@@H](Cc2ccc(Cl)cc2)NC2CCC(N)CC2)CC1 (stereo partly drawn) (as salt: HCl) [Compound 2, N-{1-[N-(4-aminocyclohexyl)-4-chloro-D-phenylalanyl]piperidin-4-yl}-N-cyclohexyl-N′,N′-diethylurea hydrochloride]
melting point: 195 °C

CCN(CC)C(=O)N(C1CCCCC1)C1CCN(C(=O)[C@@H](Cc2ccc(Cl)cc2)NC2CCC(N)CC2)CC1 (stereo partly drawn) [Compound 2, N-{1-[N-(4-aminocyclohexyl)-4-chloro-D-phenylalanyl]piperidin-4-yl}-N-cyclohexyl-N′,N′-diethylurea hydrochloride]
pIC50 (human MC4 receptor [2]): 6.52
pEC50 (human MC3 receptor): 6.43
pEC50 (human MC4 receptor [1]): 7.52
